Data as given in US20250109104A1, “SQUARAINE FLUOROPHORES” (The General Hospital Corporation, priority 2022, published 2025).

Legend:
cancer = settings: in vivo; cited from earlier work
tumors = experiment: Intraoperative NIR imaging for fluorescence guided surgery (FGS) in tumor-bearing mice; format: in vivo
Description: FIG. 5 depicts intraoperative imaging of OCTL14 for fluorescence guided surgery (FGS). (a) FGS using the squaraine. Tumor-bearing mice were intravenously injected with 100 nmol of OCTL14. FGS was performed 6 h post-injection. The yellow circle indicates the lesions for which intraoperative image-guided surgeries were performed. The middle panels show the tumor locations before/after surgery and resected tumors of different sizes. Scale bars=1 cm. (b) Clinical impact of the use of OCTL14. The number of tumors detected using color images only was compared to those detected using NIR imaging by experienced surgeons.
Structure-inherent targeting: Squaraines are selectively taken up by cancer cells via organic cation transporters (OCTs), overexpressed by cancer cells (FIG. 4). This high affinity is mediated by the unique structure of the molecule. This was achieved this by introducing an asymmetric molecular conformation and surface charges. In this way, squaraines can be up-taken rapidly via transporter and selectively accumulate in cancer cells, not normal cells. In addition, we have shown that once they are taken up by cancer cells, squaraines can stay in lysosomes for hours for durable imaging. This feature is critical to have a clear contrast between cancerous and normal tissue for clear cancer imaging during surgery or medical procedures.

Structure (SMILES)	blood half-life (cancer)	cancer targeting capability (cancer)	localization of cancer tissues (tumors; 6 h post-injection, 100 nmol intravenously, tumor-bearing mice)	resection of tumors under image guidance (tumors; FGS 6 h post-injection)	residual tumor after FGS (tumors; FGS 6 h post-injection)
CC1(C)C(/C=C/C=C/C=C/C=C2\N(CCCCS(=O)(=O)O)c3ccc4ccccc4c3C2(C)C)=[N+](CCCCS(=O)(=O)[O-])c2ccc3ccccc3c21 [ICG, indocyanine green]	short blood half-life	no specific cancer targeting capability	–	–	–
Br.C[N+]1=C(/C=C2\C(=O)C(/C=C3/N(CCC[N+](C)(C)C)c4ccc(F)cc4C3(C)C)=C2[O-])C(C)(C)c2ccccc21.[I-] [OCTL14, Mono ((Z)-2-((E)-(5-fluoro-3,3-dimethyl-1-(3-(trimethylammonio)propyl)indolin-2-ylidene)methyl)-3-oxo-4-((1,3,3-trimethyl-3H-indol-1-ium-2-yl)methylene)cyclobut-1-enolate) mono bromide monoiodide]	–	–	precise localization of cancer tissues	complete resection of tumors	no residual tumor
